# Patent US11332716B2, “Methods and compositions for producing pancreatic beta cells” (The Regents of the University of California, priority 2015, dated 2022)
# Test system: PDX1+/NKX6.1+ pancreatic progenitor cells
# Assay: Direct differentiation of PDX1+/NKX6.1+ progenitors to pancreatic beta cells
# Type: cell-based, human
# Details: alone; does not maintain any progenitor expression
# Protocol: Variations on the direct differentiation method disclosed herein (see, e.g., Examples 13 and 17) were also developed that yielded efficient and cost-effective production of functional pancreatic beta cells from pluripotent stem cells. Illustrated schematically in FIG. 24, one method according to the disclosure provides embryonic stem cells (e.g., human embryonic stem cells) that were exposed to retinoic acid and incubated for a sufficient time to see expression of PDX1. During this time, the cells were not exposed to bone morphogenetic protein (BMP), which can lead to precocious endocrine differentiation and, ultimately, the production of non-functional polyhormonal cells. PDX1^+ cells were then exposed to 50 ng/ml epidermal growth factor (EGF) and 50 ng/ml keratinocyte growth factor (KGF or K) in DMEM basal media containing IX GLUTAMAX™ (Invitrogen), IX non-essential amino acids (Invitrogen) and serum-free IX B27supplement (Life Technologies) for an extended period of 24-48 hours under the culture conditions disclosed herein. The extended incubation of pancreatic progenitor PDX1^+ cells in the absence of BMP led to the efficient production of […] pancreatic progenitor cells. The PDX1^+NKX6.1^+cells were then incubated in an optimized combination of growth factors to induce NGN3 expression while maintaining expression of PD1 and NKX6.1. […]
smiles,measurement,value
C[C@H](NC(=O)Cc1cc(F)cc(F)c1)C(=O)N[C@@H]1C(=O)N(C)c2ccccc2-c2ccccc21 [gamma secretase inhibitor XX],endocrine differentiation,induces endocrine differentiation efficiently
